From ChEMBL document CHEMBL5649169 (ChemMedChem, 2018)

Key:
[1] = target: Thioredoxin-related transmembrane protein 1 (Homo sapiens) (UniProt Q9H3N1)
[2] = target: Extended synaptotagmin-2 (Homo sapiens) (UniProt A0FGR8)
[3] = target: Casein kinase I isoform gamma-1 (Homo sapiens) (UniProt Q9HCP0)
[4] = target: Serine/threonine-protein kinase 16 (Homo sapiens) (UniProt O75716)
[5] = target: SWI/SNF complex subunit SMARCC2 (Homo sapiens) (UniProt Q8TAQ2)
[6] = target: Large ribosomal subunit protein eL13 (Homo sapiens) (UniProt P26373)
[7] = target: Eukaryotic translation initiation factor 3 subunit E (Homo sapiens) (UniProt P60228)
[8] = target: Vesicle-trafficking protein SEC22b (Homo sapiens) (UniProt O75396)
[9] = target: Proteasome subunit alpha type-6 (Homo sapiens) (UniProt P60900)
[10] = target: Serine/threonine-protein kinase pim-1 (Homo sapiens) (UniProt P11309)
[11] = target: Heterogeneous nuclear ribonucleoprotein A3 (Homo sapiens) (UniProt P51991)
[12] = target: Succinate--CoA ligase [ADP/GDP-forming] subunit alpha, mitochondrial (Homo sapiens) (UniProt P53597)
Homo sapiens [13] = organism: Homo sapiens
[14] = target: 7-dehydrocholesterol reductase (Homo sapiens) (UniProt Q9UBM7)
[15] = target: UV excision repair protein RAD23 homolog B (Homo sapiens) (UniProt P54727)
[16] = target: Mitochondrial 2-oxoglutarate/malate carrier protein (Homo sapiens) (UniProt Q02978)
[17] = target: Pre-mRNA-processing-splicing factor 8 (Homo sapiens) (UniProt Q6P2Q9)
[18] = target: Serine palmitoyltransferase 1 (Homo sapiens) (UniProt O15269)
Wolframin (Homo sapiens) = Wolframin (Homo sapiens) (UniProt O76024)
[19] = target: Methionine--tRNA ligase, cytoplasmic (Homo sapiens) (UniProt P56192)
Septin-9 (Homo sapiens) = Septin-9 (Homo sapiens) (UniProt Q9UHD8)
[20] = target: Tyrosine-protein kinase HCK (Homo sapiens) (UniProt P08631)
Homo sapiens [21] = organism: Homo sapiens; remark: listed apart in the source
[22] = target: PCI domain-containing protein 2 (Homo sapiens) (UniProt Q5JVF3)
[23] = target: Large ribosomal subunit protein eL33 (Homo sapiens) (UniProt P18077)
[24] = target: Unconventional myosin-If (Homo sapiens) (UniProt O00160)
[25] = target: Heterogeneous nuclear ribonucleoprotein F (Homo sapiens) (UniProt P52597)
[26] = target: Transcription factor A, mitochondrial (Homo sapiens) (UniProt Q00059)
[27] = target: Thioredoxin-dependent peroxide reductase, mitochondrial (Homo sapiens) (UniProt P30048)
Cullin-1 (Homo sapiens) = Cullin-1 (Homo sapiens) (UniProt Q13616)
[28] = target: Small ribosomal subunit protein uS8 (Homo sapiens) (UniProt P62244)
[29] = target: E3 ubiquitin-protein ligase synoviolin (Homo sapiens) (UniProt Q86TM6)
[30] = target: Eukaryotic translation initiation factor 3 subunit B (Homo sapiens) (UniProt P55884)
[31] = target: Non-receptor tyrosine-protein kinase TNK1 (Homo sapiens) (UniProt Q13470)
[32] = target: Adenosine 5'-monophosphoramidase HINT1 (Homo sapiens) (UniProt P49773)
[33] = target: Integrin alpha-6 (Homo sapiens) (UniProt P23229)
[34] = target: Ribosome-binding protein 1 (Homo sapiens) (UniProt Q9P2E9)
[35] = target: G1/S-specific cyclin-E1 (Homo sapiens) (UniProt P24864)
[36] = target: Glucose-6-phosphate 1-dehydrogenase (Homo sapiens) (UniProt P11413)
[37] = target: Calcium-binding protein 39 (Homo sapiens) (UniProt Q9Y376)
[38] = target: Leucine-rich repeat-containing protein 59 (Homo sapiens) (UniProt Q96AG4)
[39] = target: Transformer-2 protein homolog beta (Homo sapiens) (UniProt P62995)
[40] = target: Dihydrolipoyl dehydrogenase, mitochondrial (Homo sapiens) (UniProt P09622)
[41] = target: RNA-binding protein 28 (Homo sapiens) (UniProt Q9NW13)
[42] = target: Mitogen-activated protein kinase kinase kinase kinase 1 (Homo sapiens) (UniProt Q92918)
[43] = target: Peroxiredoxin-1 (Homo sapiens) (UniProt Q06830)
[44] = target: Translocation protein SEC63 homolog (Homo sapiens) (UniProt Q9UGP8)
Also: assay method not described here.

Structure (SMILES): Cc1ccc(C(=O)Nc2cccc(C(F)(F)F)c2)cc1Nc1nc(-c2cccnc2)nc2c1cnn2C
- ED50 [1]: 219 µM
- ED50 [2]: 0.041 µM
- ED50 [3]: 0.27 µM
- ED50 [4]: 0.13 µM
- ED50 [5]: 21.8 µM
- ED50 [6]: 13.9 µM
- ED50 [7]: 24.5 µM
- ED50 [8]: 103 µM
- ED50 [9]: 3.6 µM
- ED50 [10]: 0.0583 µM
- ED50 [11]: 0.174 µM
- ED50 [12]: 0.0563 µM
- ED50 (Homo sapiens [13]): 1.29 µM
- ED50 [14]: 0.0142 µM
- ED50 [15]: 0.00259 µM
- ED50 [16]: 0.0531 µM
- ED50 [17]: 93.7 µM
- ED50 [18]: 0.613 µM
- ED50 (Wolframin (Homo sapiens)): 2.67 µM
- ED50 [19]: 0.0806 µM
- ED50 (Septin-9 (Homo sapiens)): 8.65 µM
- ED50 [20]: 22 µM
- ED50 (Homo sapiens [21]): 1.18 µM
- ED50 [22]: 1.92 µM
- ED50 [23]: 0.0388 µM
- ED50 [24]: 4.43 µM
- ED50 [25]: 22.6 µM
- ED50 [26]: 17 µM
- ED50 [27]: 0.164 µM
- ED50 (Cullin-1 (Homo sapiens)): 0.000443 µM
- ED50 [28]: 0.00641 µM
- ED50 [29]: 0.162 µM
- ED50 [30]: 9.87 µM
- ED50 [31]: 18.8 µM
- ED50 [32]: 0.00551 µM
- ED50 [33]: 0.0163 µM
- ED50 [34]: 11.3 µM
- ED50 [35]: 0.103 µM
- ED50 [36]: 81.4 µM
- ED50 [37]: 0.157 µM
- ED50 [38]: 0.163 µM
- ED50 [39]: 0.0121 µM
- ED50 [40]: 11.1 µM
- ED50 [41]: 0.021 µM
- ED50 [42]: 5.28 µM
- ED50 [43]: 0.0459 µM
- ED50 [44]: 95700 µM

Structure (SMILES): Cc1ccc(C(=O)Nc2cccc(C(F)(F)F)c2)cc1Nc1nc(-c2cccnc2)nc2nn(C)cc12
- ED50 [1]: 131 µM
- ED50 [2]: 0.0286 µM
- ED50 [3]: 3.41 µM
- ED50 [4]: 0.0232 µM
- ED50 [5]: 0.0058 µM
- ED50 [6]: 0.0196 µM
- ED50 [7]: 0.512 µM
- ED50 [8]: 3.32 µM
- ED50 [9]: 0.0409 µM
- ED50 [10]: 0.0901 µM
- ED50 [11]: 1.07 µM
- ED50 [12]: 0.877 µM
- ED50 (Homo sapiens [13]): 0.0274 µM
- ED50 [14]: 0.0055 µM
- ED50 [15]: 14.9 µM
- ED50 [16]: 0.00199 µM
- ED50 [17]: 0.553 µM
- ED50 [18]: 0.107 µM
- ED50 (Wolframin (Homo sapiens)): 2.66 µM
- ED50 [19]: 6.54 µM
- ED50 (Septin-9 (Homo sapiens)): 0.109 µM
- ED50 [20]: 0.0555 µM
- ED50 (Homo sapiens [21]): 0.131 µM
- ED50 [22]: 1450 µM
- ED50 [23]: 0.0167 µM
- ED50 [24]: 0.105 µM
- ED50 [25]: 0.349 µM
- ED50 [26]: 0.0487 µM
- ED50 [27]: 4.56 µM
- ED50 (Cullin-1 (Homo sapiens)): 0.0051 µM
- ED50 [28]: 5.32 µM
- ED50 [29]: 0.00734 µM
- ED50 [30]: 0.00195 µM
- ED50 [31]: 0.064 µM
- ED50 [32]: 0.318 µM
- ED50 [33]: 7.19 µM
- ED50 [34]: 0.277 µM
- ED50 [35]: 0.0206 µM
- ED50 [36]: 0.107 µM
- ED50 [37]: 0.00782 µM
- ED50 [38]: 0.0082 µM
- ED50 [39]: 0.537 µM
- ED50 [40]: 10.8 µM
- ED50 [41]: 1.75 µM
- ED50 [42]: 0.334 µM
- ED50 [43]: 9.72 µM
- ED50 [44]: 0.0344 µM
